Like-named read-outs stand apart in the source and are kept apart here.
Tests used:
[1] = test system: TLR2 induced IL-6 in peripheral blood mononuclear cells (PBMCs); assay: PBMC TLR2 Induced IL-6 Assay; type: cell-based, human; settings: IL-6 by ELISA; for IC50: read-out: Cell IC50; for EC50: read-out: Cell EC50
In short: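 Lipoteichoic acid at 10 µg/ml served as TLR2 stimulus for 5 hours, following a 30-minute compound pretreatment at 37° C. Cells were Ficoll-isolated human PBMCs, 250000 cells/well, cultured in RPMI plus 10% heat-inactivated FCS.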

[2] = molecular target: IRAK4 (Homo sapiens (Human), UniProt Q9NWZ3); assay: IRAK4 Inhibition Assay; type: biochemical; settings: ATP 500 μM, read-out: IRAK4 IC50
In short: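 IRAK4 combined with fluorescent substrate and compounds, reacted 60 min at room temperature, stopped with 35 mM EDTA. Substrate and phosphorylated product separated electrophoretically on a Caliper LabChip 3000 mobility-shift reader.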

[3] = Homo sapiens, PBMC, human PBMCs, lipoteichoic acid stimulated
[4] = Homo sapiens, PBMC, PBMC TLR2 Induced IL-6 Assay, lipoteichoic acid stimulation
[5] = human PBMCs, lipoteichoic acid stimulated
[6] = PBMC TLR2 Induced IL-6 Assay, lipoteichoic acid stimulation

Sequence of IRAK4 (Q9NWZ3 whole entry, species assumed): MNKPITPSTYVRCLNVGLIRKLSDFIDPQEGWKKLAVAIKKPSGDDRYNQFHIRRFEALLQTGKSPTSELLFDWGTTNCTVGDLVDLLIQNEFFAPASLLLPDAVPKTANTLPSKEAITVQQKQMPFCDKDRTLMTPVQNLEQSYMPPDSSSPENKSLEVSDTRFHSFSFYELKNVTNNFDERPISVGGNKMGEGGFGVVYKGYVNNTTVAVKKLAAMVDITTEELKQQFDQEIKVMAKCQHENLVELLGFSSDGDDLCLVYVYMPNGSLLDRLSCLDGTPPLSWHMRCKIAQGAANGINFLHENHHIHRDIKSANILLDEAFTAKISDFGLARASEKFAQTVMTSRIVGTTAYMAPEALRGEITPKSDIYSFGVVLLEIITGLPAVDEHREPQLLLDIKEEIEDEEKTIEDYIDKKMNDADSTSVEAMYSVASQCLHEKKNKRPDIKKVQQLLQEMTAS

Compound | IC50 ([2]; IRAK4 0.6 nM) [µM] | EC50 [1, 4] [µM] | IC50 ([2]; IRAK4 Inhibition Assay) [µM] | IC50 [1, 4] [µM] | other results
CC(C)Nc1cc(-n2ccc3cc(CNC(=O)OC(C)C)cnc32)ncc1C(=O)NC[C@@H](F)C(C)(C)O [Example 502] | 0.0048 |  |  |  | IC50 [1, 3]: 0.366 µM
CC(C)Nc1cc(-n2ccc3cc(C#N)cnc32)ncc1C(=O)NCCCOC(C)(C)C [Example 15, N-(3-(tert-butoxy)propyl)-6-(5-cyano-1H-pyrrolo[2,3-b]pyridin-1-yl)-4-(isopropylamino)nicotinamide] |  | 0.171 | 0.0055 |  | 
COC(C)(C)[C@H](F)CNC(=O)c1cnc(-n2ncc3cc(C#N)c(N)nc32)cc1NC(C)C [Example 321] |  |  | 0.0031 | 0.053 | 
CC(C)Nc1cc(-n2ncc3cc(C#N)cnc32)ncc1C(=O)N[C@H]1CC[C@H](S(C)(=O)=O)CC1 [Example 161, 6-(5-cyano-1H-pyrazolo[3,4-b]pyridin-1-yl)-4-(isopropylamino)-N-((trans)-4-(methylsulfonyl)cyclohexyl)nicotinamide] |  | 0.253 | 0.0068 |  | 
[2H]C([2H])([2H])NC(=O)[C@H]1CC[C@H](NC(=O)c2cnc(-n3ncc4cc(C#N)cnc43)cc2NC(C)C)CC1 [Example 162, 6-(5-cyano-1H-pyrazolo[3,4-b]pyridin-1-yl)-4-(isopropylamino)-N-((trans)-4-((^2H3)methylcarbamoyl)cyclohexyl)nicotinamide] |  | 0.129 | 0.0038 |  | 
C[C@@H](CO)Nc1cc(-n2ccc3cc(F)cnc32)ncc1C(=O)N[C@H]1CC[C@H](C(C)(C)O)CC1 [Example 432] | 0.0021 |  |  |  | EC50 [1, 3]: 0.08 µM
CC(C)Nc1cc(-n2ccc3cc(C#N)cnc32)ncc1C(=O)NC[C@H](F)C(C)(C)O [Example 23, (S)-6-(5-cyano-1H-pyrrolo[2,3-b]pyridin-1-yl)-N-(2-fluoro-3-hydroxy-3-methylbutyl)-4-(isopropylamino)nicotinamide] |  | 0.11 | 0.0026 |  | 
CC(C)(O)[C@H](F)CNC(=O)c1cnc(-n2ncc3cc(C#N)cnc32)cc1NC1CCC(F)(F)C1 (single isomer, unassigned) [Example 615] | 0.0023 |  |  |  | IC50 [1, 5]: 0.19 µM
CCOC(C)(C)[C@H](F)CNC(=O)c1cnc(-n2ncc3cc(C#N)cnc32)cc1NC(C)C [Example 215] |  | 0.144 | 0.0037 |  | 
CC(C)(O)[C@H](F)CNC(=O)c1cnc(-n2ccc3cncnc32)cc1NC1CC1 [Example 41, (R)-4-(cyclopropylamino)-N-(2-fluoro-3-hydroxy-3-methylbutyl)-6-(7H-pyrrolo[2,3-d]pyrimidin-7-yl)nicotinamide] |  | 0.22 | 0.0019 | 0.22 | 
CC(C)Nc1cc(-n2ncc3cc(C#N)c(N)nc32)ncc1C(=O)NC1C=CCC1 (centres unmarked) [Example 327] |  |  | 0.0111 | 0.181 | 
CC(C)Nc1cc(-n2ccc3cc(CNC(=O)Cc4ccccc4)cnc32)ncc1C(=O)NC[C@@H](F)C(C)(C)O [Example 515] | 0.0022 |  |  |  | IC50 [1, 3]: 0.542 µM
CC(C)(O)[C@H](F)CNC(=O)c1cnc(-n2ncc3cc(C#N)cnc32)cc1NC1CC1 [Example 336] |  |  | 0.0038 | 0.556 | EC50 [1, 6]: 0.168 µM
CNC(=O)[C@H](F)CNC(=O)c1cnc(-n2ccc3cc(C#N)cnc32)cc1NC1CC1 [Example 132, (R)-6-(5-Cyano-1H-pyrrolo[2,3-b]pyridin-1-yl)-4-(cyclopropylamino)-N-(2-fluoro-3-(methylamino)-3-oxopropyl)nicotinamide] |  | 0.092 | 0.0047 |  | 
CCCCNC(=O)c1cnc(-n2ncc3cc(C#N)cnc32)cc1N[C@@H](C)CO [Example 319] |  |  | 0.0065 | 0.191 | 
CC(C)Nc1cc(-n2ccc3cc(C#N)cnc32)ncc1C(=O)N[C@H]1CC[C@](F)(c2nccs2)CC1 [Example 180, 6-(5-cyano-1H-pyrrolo[2,3-b]pyridin-1-yl)-N-((1s,4s)-4-fluoro-4-(thiazol-2-yl)cyclohexyl)-4-(isopropylamino)nicotinamide] |  | 0.208 | 0.0053 |  | 
CC(C)Nc1cc(-n2ccc3cc(C#N)cnc32)ncc1C(=O)N[C@H]1CC[C@H](C(C)(C)O)C1 [Example 497] | 0.0037 |  |  |  | IC50 [1, 3]: 0.098 µM
CC(C)Nc1cc(-n2ncc3cc(C#N)cnc32)ncc1C(=O)NCCNS(C)(=O)=O [Example 219] |  | 0.502 | 0.0149 | 0.678 | 
CC(C)(O)[C@H](F)CNC(=O)c1cnc(-n2ccc3cc(C#N)cnc32)cc1NC1COC1 [Example 437] | 0.001 |  |  |  | EC50 [1, 3]: 0.042 µM
CNC(=O)C[C@H]1CC[C@H](NC(=O)c2cnc(-n3ncc4cc(C#N)cnc43)cc2NC(C)C)CC1 [Example 218] |  | 0.111 | 0.0195 |  | 

Compound | IC50 ([2]; IRAK4 0.6 nM) [µM] | EC50 [1, 4] [µM] | IC50 ([2]; IRAK4 Inhibition Assay) [µM] | IC50 [1, 4] [µM] | other results
CC(C)C(O)CNc1cc(-n2ncc3cc(Cl)cnc32)ncc1C(=O)NC[C@@H](F)C(C)(C)O (single isomer, unassigned) [Example 596] | 0.0182 |  |  |  | IC50 [1, 5]: 0.578 µM
CC(C)(O)[C@H](F)CNC(=O)c1cnc(-n2ncc3cc(C#N)cnc32)cc1NC1CCC1 [Example 145, (R)-6-(5-cyano-1H-pyrazolo[3,4-b]pyridin-1-yl)-4-(cyclobutylamino)-N-(2-fluoro-3-hydroxy-3-methylbutyl)nicotinamide] |  | 0.061 | 0.0045 |  | 
CC(O)CCNc1cc(-n2ccc3cc(C#N)cnc32)ncc1C(=O)NC[C@@H](F)C(C)(C)O (single isomer, unassigned) [Example 461] | 0.0025 |  |  |  | EC50 [1, 5]: 0.074 µM; IC50 [1, 5]: 0.122 µM
CC(C)Nc1cc(-n2ncc3cc(Br)cnc32)ncc1C(=O)NC[C@@H](F)C(C)(C)O [Example 158, (R)-6-(5-Bromo-1H-pyrazolo[3,4-b]pyridin-1-yl)-N-(2-fluoro-3-hydroxy-3-methylbutyl)-4-(isopropylamino)nicotinamide] |  | 0.127 | 0.0042 |  | 
CCn1cc(Nc2cc(-n3ncc4cc(C#N)cnc43)ncc2C(=O)NC[C@@H](F)C(C)(C)O)cn1 [Example 355] |  |  | 0.0024 | 0.122 | 
CC(C)Nc1cc(-n2ncc3cc(C#N)cnc32)ncc1C(=O)NC[C@@H](F)C(=O)N[C@@H](C)CO [Example 230] |  | 0.41 | 0.0134 | 0.459 | 
CC(C)Nc1cc(-n2ncc3cc(C#N)cnc32)ncc1C(=O)NCC(=O)N1CCOCC1 [Example 206] |  | 0.086 | 0.0144 |  | 
CC(C)Nc1cc(-n2ccc3cc(C#N)cnc32)ncc1C(=O)NCC(=O)N1CCN(C)CC1 [Example 467] | 0.0023 |  |  |  | EC50 [1, 3]: 0.026 µM; IC50 [1, 3]: 0.1 µM
CC(C)(O)CCNC(=O)c1cnc(-n2ccc3cc(Cl)cnc32)cc1NC1CCOCC1 [Example 36, 6-(5-chloro-1H-pyrrolo[2,3-b]pyridin-1-yl)-N-(3-hydroxy-3-methylbutyl)-4-((tetrahydro-2H-pyran-4-yl)amino)nicotinamide] |  | 0.133 | 0.0031 |  | 
CC(C)[C@@H](CO)Nc1cc(-n2ncc3cc(C#N)cnc32)ncc1C(=O)NC[C@@H](F)C(C)(C)O [Example 569] | 0.013 |  |  |  | EC50 [1, 3]: 0.242 µM
COC1CCN(c2ccc(NC(=O)c3cnc(-n4ncc5cc(C#N)cnc54)cc3NC(C)C)nc2)CC1 [Example 254] |  |  | 0.01 | 0.496 | 
COc1cnc2c(cnn2-c2cc(NC(C)C)c(C(=O)NC[C@@H](F)C(C)(C)O)cn2)c1 [Example 195] |  | 0.34 | 0.0194 | 0.647 | 
CC(C)(C)CNc1cc(-n2ncc3cc(C#N)cnc32)ncc1C(=O)NC[C@@H](F)C(C)(C)O [Example 576] | 0.0058 |  |  |  | IC50 [1, 3]: 0.153 µM
CC(C)(O)[C@H](F)CNC(=O)c1cnc(-n2ncc3cc(C#N)cnc32)cc1Nc1cnn(CC(F)F)c1 [Example 347, (R)-6-(5-Cyano-1H-pyrazolo[3,4-b]pyridin-1-yl)-4-((1-(2,2-difluoroethyl)-1H-pyrazol-4-yl)amino)-N-(2-fluoro-3-hydroxy-3-methylbutyl)nicotinamide] |  |  | 0.0013 | 0.146 | 
CC(=O)N[C@H]1CC[C@H](NC(=O)c2cnc(-n3ccc4cc(C#N)cnc43)cc2NC2CC2)CC1 [Example 87, N-((trans)-4-acetamidocyclohexyl)-6-(5-cyano-1H-pyrrolo[2,3-b]pyridin-1-yl)-4-(cyclopropylamino)nicotinamide] |  | 0.063 | 0.0019 |  | 
CC(C)(O)[C@H](F)CNC(=O)c1cnc(-n2ncc3cc(C#N)cnc32)cc1NC1CN(c2ncc(F)cn2)C1 [Example 539] | 0.0063 |  |  |  | EC50 [1, 3]: 0.256 µM
CNC(=O)[C@H]1CC[C@H](NC(=O)c2cnc(-n3ccc4cncnc43)cc2NC2CCOCC2)CC1 [Example 82, N-((trans)-4-(methylcarbamoyl)cyclohexyl)-6-(7H-pyrrolo[2,3-d]pyrimidin-7-yl)-4-((tetrahydro-2H-pyran-4-yl)amino)nicotinamide] |  | 0.166 | 0.0044 | 0.578 | 
CC(C)(O)[C@H](F)CNC(=O)c1cnc(-n2ccc3cc(C#N)cnc32)cc1Nc1ccc2[nH]ncc2c1 [Example 438] | 0.0025 |  |  |  | EC50 [1, 3]: 0.033 µM
6-(5-cyano-1H-pyrrolo[2,3-b]pyridin-1-yl)-N—((S)-2-fluoro-3-hydroxy-3-methylbutyl)-4-((3-fluorotetrahydro-2H-pyran-4-yl)amino) nicotinamide [Example 108] |  |  | 0.0035 |  | EC50 [1, 6]: 0.172 µM

From US9169252B2 (BRISTOL-MYERS SQUIBB COMPANY, priority 2014, dated 2015)
